Source: a melting point compilation (Tetko et al.; mined from patent text by program, amines drawn as free bases though some values may be those of a salt)

melting point [°C]	SMILES
64 to 66	O=C(CCc1ccc(Cl)cc1Cl)NC1N=C(C2CC2)c2ccccc2N(CC(F)(F)F)C1=O (single isomer, unassigned; (+))
319 to 320	O=C(NCc1ccc(Cl)cc1)c1cnc2c(O)cccc2c1O
270 to 272	Cc1ccc2c(-c3cccc(O)c3)nc(=O)n(C(C)C)c2c1
232	N#CC1=C(c2cccs2)Nc2n[nH]cc2C1c1cccc(Cl)c1Cl (stereo not given)
139 to 141	CC(C)(O)Cc1cc(O)ccc1Br
72 to 74	Cc1ccc(CNc2nc(Nc3cccc(C(F)(F)F)c3)nc(OCC(F)(F)F)n2)o1
85 to 88	CC(=O)SCc1ccccc1CCC(=O)Nc1cccc(C(=O)OCCBr)c1
254 to 256	COc1ccc(C2=NN(c3nc(-c4cccs4)ns3)C(=O)[C@H]3CC=CC[C@@H]23)cc1Cl (relative stereo)
155 to 160	O=[N+]([O-])c1ccc(F)cc1CS(=O)(=O)c1cccc2ccccc12
153 to 155	COc1ccc2c(C(=O)O)c(OC)ccc2c1
61 to 61.3	C[C@@H](c1ccccc1)N1CC[C@@H](C2(N(Cc3ccccc3)Cc3ccccc3)CC2)C1
168 to 169	CCN(c1ccc(OC)cc1)S(=O)(=O)c1cccc(C(=O)Nc2ccc(C#N)cc2)c1
258	COC(=O)Nc1nc2ccc(OS(=O)(=O)c3ccc(-n4ccnc4)cc3)cc2[nH]1
174 to 177	Cc1ccc(S(=O)(=O)OCCOc2ccc3[nH]nc(S(=O)(=O)c4ccccc4)c3c2)cc1
49 to 54	CCCCn1nc(C)c(C(=O)OC)c1Cc1ccc(-c2ccccc2S(N)(=O)=O)cc1
112	Cc1cc([C@H]2CN3C(=O)N(c4cc(Cl)nc(Cl)c4)C(=O)[C@]3(Cc3ccc(OC(F)(F)F)cc3)C2)c(C)[nH]1
64 to 65	Cc1oc(-c2ccccc2)nc1COc1ccc(C(C)CCC2SC(=O)NC2=O)cc1 (stereo not given)
149 to 150	CC(C)(C)C1Cn2c(nc3ccccc32)-c2ccccc2O1 (stereo not given)
222 to 224	N#Cc1ccc2oc(-c3cccc(O)c3)cc2c1
73 to 75	CC1(C)CC(N)CC(C)(C)N1Cc1ccccc1
215 to 217	COc1cc(OC)c(-c2cc3ccccc3s2)cc1/C=C/C(=O)c1ccc(C(=O)NCC(F)(F)F)cc1
160 to 162	COc1ccc(Sc2ccc3[nH]cc(C4CCN(C)CC4)c3c2)cc1
197 to 198	COc1ccc(C(=O)n2c3c(c4cc(F)ccc42)CC(C(=O)O)CC3)cc1 (stereo not given)
157 to 158	COc1ccc(-c2cc(C(=O)O)nnc2-c2ccc(OC)cc2)cc1
174 to 176	CC(C)(C)C(=O)N1CCN(c2ccc(C(=O)CSc3ccnc4ccccc34)cc2)CC1
125 to 140	N=C(NCc1ccccn1)NN=Cc1c(Cl)cccc1Cl

melting point [°C]	SMILES
281 to 284	CCCn1c(=O)c2[nH]c(/C=C/c3ccc(OC)cc3)nc2n(CCC)c1=O
125 to 127	O=C(NS(=O)(=O)C=Cc1ccccc1)N1CCC(CCCc2ccccc2)CC1
152 to 154	CC1=Nc2ccccc2N(Cc2ccccc2)C(=O)C1C/C=C/c1ccccc1 (stereo not given)
34 to 36	Cc1nc(-c2ccc(N)c(Br)c2)c[nH]1
126 to 128	CC(C)(O)COc1ccc(/C=C/C(=O)O)c(Oc2ncc(C(F)(F)F)cc2Cl)c1
239 to 241	Nc1ncc(-c2cccc(Cl)c2Cl)nc1C(=O)Nc1cccnc1
254 to 257	COCCn1nc2c(N)nc3ncccc3c2c1CC(C)(C)C(N)=O
63 to 65	CCOC(=O)c1ccc(OCCCCCCc2cccc(OCc3ccccc3)c2OCc2ccccc2)cc1
230 to 231	CN1CCN(c2cccc3c2C[C@H](NC(=O)c2ccc(N4CCOCC4)cc2)CC3)CC1
110 to 113	Cc1ccccc1C(C)Oc1cc(OCc2ccccc2)ccc1C(=O)O (stereo not given)
164 to 165	O=C(O)c1ccc(Cl)cc1Nc1ccc(O)cc1
243 to 244	CNC(=O)c1ccccc1Nc1nc(Nc2cccc3c2N(C)CCN(C)C3=O)ncc1Cl
205 to 207	COc1ccc(C2c3c(C)c(N4CCN(c5ccc(OC)cc5)CC4)c(C)c(C)c3OC2(C)C)cc1 (stereo not given)
116 to 117	COc1ccc(CCOc2ccnc(Cl)c2)cc1OC
194 to 195	Cc1c(-c2cccc(C(F)(F)F)c2)oc2c(-c3ccc(F)cc3)c(-c3ccc(S(C)(=O)=O)cc3)nn12
218	CCn1nc(-c2ccc(F)cc2)c(C(C)=O)c(Nc2cccc3ncccc23)c1=O
249	COC(=O)C1=C(C(=O)OC)c2c([nH]c3ccccc23)CC1
132 to 133	COc1ccc(C=C2CCc3cc(OCCn4ccnc4)ccc3C2=O)cc1
159 to 161	CC(C)(C)c1cc(CCCO)cc(-n2nc3ccc(S(=O)(=O)c4ccccc4)cc3n2)c1O
98	C=CCC(F)(F)C(=O)C(Cc1ccccc1)NC(=O)c1ccccc1 (stereo not given)
113 to 115	Cc1c(C)c2c(c(C)c1N)CC(C)(CN1CCN(C(=O)C(c3ccccc3)c3ccccc3)CC1)O2 (stereo not given)
212 to 214	CC(=O)Nc1ccc(Sc2nc(Nc3cc(C)n[nH]3)cc(-c3ccccc3C)n2)cc1
152 to 154	CCCCc1nc2c(N)nc3ccccc3c2n1CCOCCN1CCCS1(=O)=O
173 to 174	COc1ccc(CNc2cc(C(=O)Nc3ccccc3)ccc2OC)cc1
61 to 62	O=Cc1cccnc1Oc1ccc(F)cc1
116 to 117	CCOC(=O)C1(C(=O)OCC)CCc2cc(Br)ccc2N1Cc1ccccc1

Further lines, the compound ahead of its results:

SMILES	melting point [°C]
Cc1nnc2n1-c1sc(C#CCn3c(=O)c4ccccc4c4ccccc43)cc1C(c1ccccc1Cl)=NC2	247 to 249
Cc1[nH]c(C=O)c2c1-c1ccc(Cl)cc1C(c1ccccc1Cl)=NC2	274 to 276
Cc1ncncc1C(=O)Nc1ccc(-n2nc(C(F)(F)F)cc2C2CC2)nc1	159 to 160
COc1cc(OC)cc(N2CCN(C(=O)N(C)c3cc(C(C)OC)c(C)nc3OC)CC2)c1 (stereo not given)	117 to 119
COC(=O)C(C)NC(=O)Cc1cc(C)c(C(=O)c2ccc(Cl)cc2)n1C (stereo not given)	163 to 165
CC(C)(C)OC(=O)CN1C(=O)C=C(CC(NC(=O)OC(C)(C)C)C(=O)OC(C)(C)C)C1=O (stereo not given)	88.5 to 89.5
CS(=O)(=O)c1ccc(-c2sc(-c3ccc(Br)s3)nc2-c2ccc(F)cc2)cc1	190 to 191
O=C(c1cccc(C(F)(F)F)c1)c1ncccc1C(O)=NNc1c(Cl)cc(C(F)(F)F)cc1Cl	92 to 96
O=C(O)Cc1ccc(NC(=O)C(COc2ccc(Cl)cc2)NS(=O)(=O)c2ccc(Br)cc2)cc1 (racemic)	218 to 220
O=C(c1ccc(O)cc1)C12CC3CC(C1)CC(C(=O)c1ccc(O)cc1)(C3)C2	208 to 209
CCCC[C@@H](C)C(C(=O)O)C(=O)O	123
COc1ccc(-c2cc3nccnc3[nH]2)cc1OCC(=O)O	330 to 332
CN1C(=O)C(=O)c2cc(I)ccc21	160 to 162
C#CC1CC2(CC#CC)C(O)CCC2C2C=CC3=CC(=O)CCC3C12 (stereo not given)	195 to 198
O=C(OCCN1C(=O)C=C(c2ccccc2)C1=O)c1cc([N+](=O)[O-])cc([N+](=O)[O-])c1	179 to 181
COC(=O)C(=CNC1CC1)C(=O)C=Cc1ccc2c(c1)OCO2	158 to 160
CC1(CCN2CCN(C(C)(C)C)C(=O)C2)Cn2cc([N+](=O)[O-])nc2O1 (stereo not given)	153 to 154
CCn1cc(C(=O)O)c(=O)c2cc(F)c(N3Cc4ccc(N)cc4C3)cc21	> 300
CS(=O)(=O)N1CCN(c2cc(Cl)ncn2)CC1	200 to 202
CS(=O)(=O)Nc1ccc([N+](=O)[O-])cc1C(=O)C1CCCCC1	178 to 179
CCC(=O)C1=C(O)CC(c2cccc(O)c2)CC1=O (stereo not given)	124 to 131
CC1(C)CCC(C)(C)c2cc(-c3cc(C=CC(=O)O)ccc3O)c(OCc3ccc(F)cc3)cc21	123 to 125

SMILES	melting point [°C]
COC(=O)c1ccc2cc(-c3ccc(OCCCO)c(C45CC6CC(CC(C6)C4)C5)c3)ccc2c1	202
O=C(C1CCCN1C(=O)CCCN1C(=O)c2ccccc2C1=O)N1CCCC1 (stereo not given)	148 to 149
N#Cc1cn(-c2c(Cl)cc(C(F)(F)F)cc2Cl)nc1C(F)(F)F	116 to 118
COC1(C)COC(C)(OC)CO1 (stereo not given)	126 to 128
O=C(NCCc1ccccc1)c1ccc(S(=O)(=O)NC(=O)c2ccc(C(=O)NCCO)nc2)cc1	228 to 230
CCCc1c2c(c(NCC)c3c(=O)cc(C(=O)OCC)oc13)CCCC2	91.5
COc1ccc(/C=C/c2ccc(Cl)cc2[N+](=O)[O-])c([N+](=O)[O-])c1	202
CC(=C=CC(=O)O)c1ccc(Cl)cc1	146 to 148
CCOC(=O)c1c(C(F)F)nc(C(F)(F)F)c(C(=O)OC)c1NC(C)C	37 to 39
COc1nc(N)ccc1C(=O)CCC1CCN(CC2CCCCC2)CC1	73.2
N#Cc1cc([N+](=O)[O-])ccc1OC1CCCCC1	97 to 98
CCOC(=O)c1c(C(F)(F)F)nc(C(F)F)c(C(=O)OC)c1CS(C)(=O)=O	110 to 112
CCCc1c(OCc2ccc(C(=O)O)cc2OCC)ccc(C(C)=O)c1O	152 to 153
O=c1[nH]c2ncc(-c3cncnc3)nc2n1CC1CCCCC1	> 260
CCCC(CCC)C(=O)OC1N=C(c2ccccc2F)c2cc(Cl)ccc2NC1=O (stereo not given)	147 to 149
CC(C)NCC(O)COc1cccc2c1CCC(O)C2 (stereo not given)	136 to 141
Cc1ccccc1OCCOS(N)(=O)=O	81.5 to 83
CC1=C(C(=O)O)C(c2cccc([N+](=O)[O-])c2)NC(=N[N+](=O)[O-])N1 (stereo not given)	236 to 238
CC1=CC(C)(C)OC1=O	54 to 55
CCOC(=O)C(=CNc1ccnc(-c2ccncc2)n1)C(=O)OCC	143 to 145
NC(=O)c1c(Cl)cc(Cl)c(CC(=O)O)c1Cl	211
